One experiment relates to BALB/c mice. Nature of the experiment: Immunization test on mice: specific IgG1 and IgG2a by ELISA. The format is in vivo. The note with it: Tat vaccine compositions; level and dispersion of the results between mice. The procedure:
5. Immunization Test on Mice.
There are available 4 groups of 6 female BALB/c mice 8 weeks old to which one of the compositions prepared in example 4 is injected subcutaneously at the rate of a dose of 200 μl per mouse; the injections are performed on D0 and at D21.
Blood samples are collected at the retro-orbital sinus at D14 for assessing the primary response and at D32 for the secondary response. The determination of the level of specific IgG1 and IgG2a is carried out by virtue of the standard ELISA tests.
The results obtained as regards the humoral responses are summarized in the table below and in FIGS. 1 to 4, where the IgG levels are expressed as arbitrary ELISA units (log10).
For each group of mice, the value indicated in the table is the mean geometric titer of the values obtained for each of the mice.

Experiment [1] has as its system dendritic cells derived from human monocytes. Nature of the experiment: Stimulation of human cells in vitro: maturation markers by flow cytometry. The class given is cell-based. The following applies: 2 days culture; DPPC liposomes, R-848 2.96 μg/ml, ER804057 0.1 μg/ml; mean of 4 donors. The procedure: (§1) The capacity of the compositions according to the invention to induce the maturation of dendritic cells derived from human monocytes in vitro is evaluated for 4 independent donors. The monocytes are obtained from peripheral blood mononuclear cells and are cultured for 5-6 days in the presence of IL4 and of GM-CSF. […] There are then carried out a phenotype analysis by flow cytometry, making it possible to measure the expression of the maturation markers CD25, CD80 and CD83, and an ELISA measurement of the cytokines (TNF-α, IL6 and IL12p70) secreted by these cells. The results indicated in the tables below represent the mean values calculated for the 4 donors: […]

The test system is the same in experiment [2]. Kind of experiment: Stimulation of human cells in vitro: ELISA of secreted cytokines. The class given is cell-based. The note with it: 2 days culture; DPPC liposomes, R-848 2.96 μg/ml, ER804057 0.1 μg/ml; mean of 4 donors. The procedure: as §1
Background: ELISA stands for enzyme-linked immunosorbent assay.

In a further experiment the target is T1, Toll-like 7 receptor (Homo sapiens, UniProt Q9NYK1).
T1 sequence (Q9NYK1 27-1049): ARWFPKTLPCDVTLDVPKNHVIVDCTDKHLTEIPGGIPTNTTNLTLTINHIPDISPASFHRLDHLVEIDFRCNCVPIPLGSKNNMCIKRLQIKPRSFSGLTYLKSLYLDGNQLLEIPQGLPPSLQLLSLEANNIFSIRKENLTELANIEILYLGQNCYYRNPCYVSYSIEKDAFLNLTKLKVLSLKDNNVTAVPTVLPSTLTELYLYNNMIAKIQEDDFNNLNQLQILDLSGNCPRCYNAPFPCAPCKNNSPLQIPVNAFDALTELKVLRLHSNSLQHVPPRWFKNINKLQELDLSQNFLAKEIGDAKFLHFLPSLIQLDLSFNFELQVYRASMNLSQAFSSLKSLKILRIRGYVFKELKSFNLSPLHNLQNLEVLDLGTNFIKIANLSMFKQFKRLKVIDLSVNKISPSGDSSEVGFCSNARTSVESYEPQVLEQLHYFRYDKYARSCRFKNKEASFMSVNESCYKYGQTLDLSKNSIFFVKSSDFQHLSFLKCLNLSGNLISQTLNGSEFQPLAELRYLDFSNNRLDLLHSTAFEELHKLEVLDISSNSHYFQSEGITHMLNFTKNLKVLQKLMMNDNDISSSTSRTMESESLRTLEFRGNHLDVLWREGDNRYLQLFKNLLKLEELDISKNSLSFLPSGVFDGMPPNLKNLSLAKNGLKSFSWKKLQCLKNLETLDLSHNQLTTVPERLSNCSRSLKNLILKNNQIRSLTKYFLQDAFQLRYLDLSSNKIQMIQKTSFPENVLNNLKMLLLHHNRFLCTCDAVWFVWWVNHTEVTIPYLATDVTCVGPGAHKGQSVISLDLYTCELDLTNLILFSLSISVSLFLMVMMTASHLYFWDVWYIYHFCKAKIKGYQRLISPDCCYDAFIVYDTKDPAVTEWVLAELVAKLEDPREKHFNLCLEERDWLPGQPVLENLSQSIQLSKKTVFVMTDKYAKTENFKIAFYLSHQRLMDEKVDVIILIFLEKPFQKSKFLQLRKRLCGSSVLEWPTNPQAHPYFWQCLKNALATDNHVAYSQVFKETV
The following applies: cited from earlier work.

The target in another experiment is T2, Toll-like 8 receptor (Homo sapiens, UniProt Q9NR97).
T2 sequence (Q9NR97 27-1041): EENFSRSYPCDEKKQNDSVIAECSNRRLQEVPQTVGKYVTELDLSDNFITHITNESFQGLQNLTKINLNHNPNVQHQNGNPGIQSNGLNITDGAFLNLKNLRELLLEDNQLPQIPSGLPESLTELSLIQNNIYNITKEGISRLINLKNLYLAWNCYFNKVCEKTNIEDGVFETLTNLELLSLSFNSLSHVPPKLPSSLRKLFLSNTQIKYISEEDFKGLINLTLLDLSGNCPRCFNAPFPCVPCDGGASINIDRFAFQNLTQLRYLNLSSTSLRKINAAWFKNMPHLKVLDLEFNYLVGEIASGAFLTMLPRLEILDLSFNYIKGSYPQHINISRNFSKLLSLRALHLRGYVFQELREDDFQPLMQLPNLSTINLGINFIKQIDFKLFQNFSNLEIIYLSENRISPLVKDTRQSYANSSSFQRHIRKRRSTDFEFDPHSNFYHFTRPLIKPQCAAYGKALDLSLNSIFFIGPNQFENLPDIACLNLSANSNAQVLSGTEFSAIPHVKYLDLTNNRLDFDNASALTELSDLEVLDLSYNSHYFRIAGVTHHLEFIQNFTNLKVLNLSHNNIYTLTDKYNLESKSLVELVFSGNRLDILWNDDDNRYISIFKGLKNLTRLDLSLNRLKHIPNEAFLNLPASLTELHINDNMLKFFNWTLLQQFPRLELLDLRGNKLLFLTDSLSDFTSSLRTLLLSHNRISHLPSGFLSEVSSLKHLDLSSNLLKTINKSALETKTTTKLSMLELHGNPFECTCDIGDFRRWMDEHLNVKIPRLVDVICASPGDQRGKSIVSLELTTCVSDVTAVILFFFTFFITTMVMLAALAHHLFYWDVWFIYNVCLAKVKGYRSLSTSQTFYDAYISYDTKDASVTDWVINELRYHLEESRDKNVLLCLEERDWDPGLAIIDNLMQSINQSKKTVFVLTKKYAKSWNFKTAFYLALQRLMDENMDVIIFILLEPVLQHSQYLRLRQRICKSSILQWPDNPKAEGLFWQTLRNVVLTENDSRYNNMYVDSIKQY
The following applies: cited from earlier work.

The next experiment has as its system mice. The note with it: ovalbumin as antigen; cited from earlier work.

For `CCOCc1nc2c(N)nc3ccccc3c2n1CC(C)(C)O` [R-848, 4-amino-2-ethoxymethyl-α,α-dimethyl-1-H-imidazo[4,5c]quinoline-1-ethanol], the “IgG2a response obtained after the injection of the booster, individual mice (FIGS. 1 to 4)” value with BALB/c mice is “on average satisfactory”. In experiment [1], the “Percentage of cells expressing the markers CD25” value worked out at 25%, the “Percentage of cells expressing the markers CD80” value turned out to be 34% and the “Percentage of cells expressing the markers CD83” value is on record as 19%. Further, in experiment [2], the “Quantity of cytokines IL 6” value was found to be 8263 pg/mL, the “Quantity of cytokines IL12p70” value amounted to 288 pg/mL and the “Quantity of cytokines TNF-α” value turned out to be 1727 pg/mL. The “activation of cells via the Toll-like 7 receptor” value on Toll-like 7 receptor is “activates the cells”. Besides, the “activation of cells via the Toll-like 8 receptor” value at Toll-like 8 receptor was “activates the cells”. The adjuvant type result in the experiment with mice is reported as “adjuvant of the TH1 type”.
On to `CCCCCCCCCCCC(=O)CC(=O)N[C@H](COCC[C@@H](CCCCCCC)OC(=O)CCCCCCCCCCC)COP(=O)(O)OCCNC(=O)NCCOP(=O)(O)OC[C@@H](COCC[C@@H](CCCCCCC)OC(=O)CCCCCCCCCCC)NC(=O)CC(=O)CCCCCCCCCCC` [ER804057, (1R,6R,22R,27R)-1,27-diheptyl-1,27-bisdodecanoyl-9,19-dihydroxy-9,19-dioxido-14-oxo-6,22-bis[(1,3-dioxotetradecyl)amino]-4,8,10,18,20,24-hexaoxa-13,15-diaza-9,19-diphosphoheptacosan], for which, in the experiment with BALB/c mice, the “IgG2a response obtained after the injection of the booster, individual mice (FIGS. 1 to 4)” value is “on average satisfactory”. Further, in experiment [1], the “Percentage of cells expressing the markers CD25” value stood at 35%, the “Percentage of cells expressing the markers CD80” value worked out at 46% and the “Percentage of cells expressing the markers CD83” value is on record as 15%. Besides, in experiment [2], the “Quantity of cytokines IL 6” value was found to be 8349 pg/mL, the “Quantity of cytokines IL12p70” value is 22 pg/mL and the “Quantity of cytokines TNF-α” value was 393 pg/mL.

Source of the values: patent US20070087009A1, “Immunostimulant composition comprising at least one toll-like receptor 7 or toll-like receptor 8 agonist and a toll-like receptor 4 agonist” (SANOFI PASTEUR, priority 2003, published 2007).
